What was measured:
[1] = mn = molality of the nth substance listed, in mol/kg; conditions: 298.15 K, 100 kPa, Liquid; for viscosity: Capillary tube (Ostwald / Ubbelohde) method; for mass density: Vibrating tube method
[2] = refractive index (Na D-line) (dimensionless); mn = molality of the nth substance listed, in mol/kg; conditions: 298.15 K, 100 kPa, Liquid, Standard Abbe refractometry
[3] = refractive index (Na D-line) (dimensionless); conditions: 298.15 K; 100 kPa; Liquid; Standard Abbe refractometry
[4] = 298.15 K, 100 kPa, Liquid

CCCCCCn1cc[n+](C)c1.[Cl-] [1-hexyl-3-methylimidazolium chloride] + CC(=O)N(C)C
Conditions | mass density, [1] [kg/m3] | refractive index, [2] | viscosity, [1] [mPa·s]
m1 = 0.0226 | 936.94 | 1.4283 | 1.029
m1 = 0.0468 | 937.6 | 1.429 | 1.042
m1 = 0.06 | 937.96 | 1.4295 | 1.057
m1 = 0.0797 | 938.48 | 1.4297 | 1.072
m1 = 0.1002 | 939.02 | 1.43 | 1.087
m1 = 0.1216 | 939.55 | 1.4303 | 1.106
m1 = 0.141 | 940.04 | 1.4307 | 1.123
m1 = 0.1621 | 940.56 | 1.431 | 1.129
m1 = 0.1781 | 940.95 | 1.4312 | 1.137
m1 = 0.2012 | 941.49 | 1.432 | 1.142

C(=NCCN=Cc1ccccn1)c1ccccn1 [N,N'-bis(2-pyridinylmethylene)-1,2-ethanediamine] + CC(=O)N(C)C
Conditions | mass density, [1] [kg/m3] | refractive index, [2] | viscosity, [1] [mPa·s]
m1 = 0.0471 | 937.73 | 1.4291 | 1.035
m1 = 0.091 | 939.12 | 1.43 | 1.069
m1 = 0.1327 | 940.31 | 1.4317 | 1.082
m1 = 0.1768 | 941.81 | 1.433 | 1.1

CC(=O)N(C)C [N,N-dimethylethanamide]
Conditions | refractive index
[3] | 1.4278

[4]
Conditions | mass density [kg/m3] | viscosity [mPa·s]
Capillary tube (Ostwald / Ubbelohde) method | – | 0.989
Vibrating tube method | 936.31 | –

Reference: the NIST ThermoML archive (doi:10.1016/j.jct.2014.09.022)
